Laboratory results taken from the supplement of paper PMC13386468.

Legend:
Conditions in all cases: assay detail: Kinobeads competition in P. falciparum blood-stage lysate
[1] = biological target: UniProt Q76NN6; assay: IC50 for competition of protein binding to Kinobeads
[2] = biological target: UniProt Q8I2W3; assay: as above
[3] = biological target: UniProt Q8I348; assay: as above
[4] = biological target: UniProt Q8I3J5; assay: as above
[5] = biological target: UniProt Q8I3Z1; assay: as above
[6] = biological target: UniProt Q8I546; assay: as above
[7] = biological target: UniProt Q8I5B3; assay: as above
[8] = biological target: UniProt Q8IAL6; assay: as above
[9] = biological target: UniProt Q8IBP0; assay: as above
[10] = biological target: UniProt Q8IBU2; assay: as above
[11] = biological target: UniProt Q8IC33; assay: as above
[12] = biological target: UniProt Q8IDV1; assay: as above
[13] = biological target: UniProt Q8II43; assay: as above
[14] = biological target: UniProt Q8IJD0; assay: as above
[15] = biological target: UniProt Q8IJW0; assay: as above
[16] = biological target: UniProt Q8IJZ9; assay: as above
[17] = biological target: UniProt Q8IK12; assay: as above
[18] = biological target: UniProt Q8IL41; assay: as above
[19] = biological target: UniProt Q8IL48; assay: as above
[20] = biological target: A0A144A0U7; assay: apparent dissociation constant (Kd app) from Kinobeads competition
[21] = biological target: UniProt C0H4R8; assay: as above
[22] = biological target: UniProt C6KSQ1; assay: as above
[23] = biological target: UniProt C6KSZ6; assay: as above
[24] = biological target: UniProt O77344; assay: as above
[25] = biological target: UniProt Q7KQK0; assay: as above
[26] = biological target: UniProt Q8I442; assay: as above
[27] = biological target: UniProt Q8I535; assay: as above
[28] = biological target: UniProt Q8I5D4; assay: as above
[29] = biological target: UniProt Q8I5E3; assay: as above
[30] = biological target: UniProt Q8I5H9; assay: as above
[31] = biological target: UniProt Q8IAM4; assay: as above
[32] = biological target: UniProt Q8IAZ3; assay: as above
[33] = biological target: UniProt Q8IE41; assay: as above
[34] = biological target: UniProt Q8IEL1; assay: as above
[35] = biological target: UniProt Q8IIW6; assay: as above
[36] = biological target: UniProt Q8IJR8; assay: as above
[37] = biological target: UniProt Q8IKQ9; assay: as above
[38] = biological target: UniProt Q9U0K8; assay: as above
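For IC50 in this document: native unpurified kinases from lysate captured on beads bearing immobilized kinase inhibitors, with bead-bound kinases quantified by mass spectrometry across compound doses.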

O=c1[nH]c2ccc(Cl)cc2c(NC2CN3CCC2CC3)c1-c1nc2ccccc2[nH]1 (stereo not drawn) [CHIR-124]
IC50 [1]: > 20 µM | IC50 [2]: > 20 µM | IC50 [3]: > 20 µM | IC50 [4]: > 20 µM | IC50 [5]: > 20 µM | IC50 [6]: > 20 µM | IC50 [7]: > 20 µM | IC50 [8]: > 20 µM | IC50 [9]: > 20 µM | IC50 [10]: > 20 µM | IC50 [11]: > 20 µM | IC50 [12]: > 20 µM | IC50 [13]: > 20 µM | IC50 [14]: > 20 µM | IC50 [15]: > 20 µM | IC50 [16]: > 20 µM | IC50 [17]: > 20 µM | IC50 [18]: > 20 µM | IC50 [19]: > 20 µM | Kd [20]: 7.53 µM | Kd [21]: 4.84 µM | Kd [22]: 0.168 µM | Kd [23]: 1.4 µM | Kd [24]: 1.28 µM | Kd [25]: 0.621 µM | Kd [26]: 7.1 µM | Kd [27]: 0.0455 µM | Kd [28]: 5.65 µM | Kd [29]: 7.57 µM | Kd [30]: 10.3 µM | Kd [31]: 7.66 µM | Kd [32]: 9.02 µM | Kd [33]: 0.239 µM | Kd [34]: 1.9 µM | Kd [35]: 0.181 µM | Kd [36]: 0.314 µM | Kd [37]: 15.3 µM | Kd [38]: 4.29 µM
